Drawing on patent US6436986B1, “Glucocorticoid receptor antagonists for treatment of diabetes” (Abbott Laboratories, priority 1999, dated 2002), this text covers melting point for one compound.

Take `COc1cccc2c1-c1cccc(C)c1C(NS(C)(=O)=O)(c1cccc(C(F)(F)F)c1)O2` (stereo not shown) [Example 1, N-[1-methoxy-7-methyl-6-[3-(trifluoromethyl)phenyl]-6H-dibenzo[b,d]pyran-6-yl]methanesulfonamide]: the melting point (in general, the temperature of the solid-liquid transition) was in the range of 217 to 218 °C.
